Series [1] is described as follows: pKa value was determined. It counts as physicochemical.
The nature of series [2]: Area under the concentration time curve in rat after 40 mg/kg oral dosage. Format: ADME, organism-based. Also noted: dose 40 mg/kg, route oral; unit not given here. The conditions noted are these: in vivo.
The nature of series [3]: Area under the concentration time curve in human after 100 mg/kg oral dosage. Also noted: dose 100 mg/kg, route oral; unit not given here. The conditions noted are these: in vivo. Format: ADME, organism-based.

With `N#Cc1ccc(Nc2nc(Cc3c(Cl)cccc3Cl)nc(NO)n2)cc1`, in series [1], the pKa was found to be 2.5. Besides, the AUC in series [2] and in series [3] was 0.1 throughout.
`Cc1cc(C)c(Nc2nc(Nc3ccc(C#N)cc3)ncc2Cl)c(C)c1`: the pKa in series [1] was 3.6.
`N#Cc1ccc(Nc2nc(N)nc(Cc3c(Cl)ccc(Cl)c3Cl)n2)cc1` came in with a pKa in series [1] of 2.8. The AUC in series [2] is listed as 4.4.
The corresponding values for `Cc1cc(C#N)cc(C)c1Oc1nc(Nc2ccc(C#N)cc2)nc(CO)c1Br` are 2 and 0.6.
The corresponding values for `N#Cc1ccc(Nc2nc(N)nc(Cc3c(Cl)ccc4[nH]ccc34)n2)cc1` are 3.3 and 67.5.
`Cc1cc(C#N)cc(C)c1Oc1nc(Nc2ccc(C#N)cc2)nc(N)c1Br` [ETRAVIRINE] had a pKa in series [1] of 3.5.
`N#Cc1ccc(Nc2nc(N)nc(Oc3c(Cl)cccc3Cl)n2)cc1` displayed a pKa in series [1] of 1.9. This molecule also had an AUC in series [2] of 0.6.
The corresponding values for `N#Cc1ccc(Nc2nc(N)nc(Cc3c(Cl)cccc3Cl)n2)cc1` are 3.1 and 1.5.
On to `Cc1cc(C#N)cc(C)c1Nc1ccnc(Nc2ccc(C#N)cc2)n1`, for which the pKa in series [1] was 5.1. Further, the AUC in series [2] is recorded as 49.3; in series [3] it was 8.2.
For the molecule `Cc1cc(C)c(Nc2nc(N)nc(Nc3ccc(C#N)cc3)n2)c(C)c1`, the pKa in series [1] worked out at 3.8.
Still for that read-out and setting: the figure for `Cc1cc(C)c(Nc2ncnc(Nc3ccc(C#N)cc3)n2)c(C)c1` is 2.6.
`N#Cc1ccc(Nc2nc(N)cc(Cc3c(Cl)cccc3Cl)n2)cc1` displayed an AUC in series [2] of 7.3.
In turn, `Cc1cc(C#N)cc(C)c1Oc1nc(Nc2ccc(C#N)cc2)ncc1Br` had a pKa in series [1] of 2.7.
